Measured values published in ChEMBL document CHEMBL4251541, “Microwave-enhanced Friedländer synthesis for the rapid assembly of halogenated quinolines with antibacterial and biofilm eradication activities against drug resistant and tolerant bacteria” (Medchemcomm, 2017).
Values after ≈ are worked out from the molar mass of the structure shown.

Experiments:
Staphylococcus aureus [1] = experiment: Antibacterial activity against methicillin-resistant Staphylococcus aureus isolate 2 after 16 to 18 hrs by broth microdilution method; format: functional
[2] = Hemolytic activity in human RBC at 200 uM after 1 hr relative to control; format: ADME, cell-based, Erythrocyte; conditions: red blood cells (erythrocytes), read-out: Activity
Enterococcus faecium [3] = experiment: Antibacterial activity against vancomycin-resistant Enterococcus faecium ATCC 700221 after 16 to 18 hrs by broth microdilution method; format: functional
[4] = test system: Staphylococcus epidermidis; experiment: Antibacterial activity against methicillin-resistant Staphylococcus epidermidis ATCC 35984 after 16 to 18 hrs by broth microdilution method; format: functional
Staphylococcus aureus [5] = experiment: Bactericidal activity against methicillin-resistant Staphylococcus aureus isolate 2 after 24 hrs by calgary biofilm device-based assay; format: functional; conditions: isolate 2, 24 h
Staphylococcus aureus [6] = experiment: Antibiofilm activity against methicillin-resistant Staphylococcus aureus isolate 2 after 24 hrs by calgary biofilm device-based assay; format: functional
[7] = test system: Staphylococcus epidermidis; experiment: Bactericidal activity against methicillin-resistant Staphylococcus epidermidis ATCC 35984 after 24 hrs by calgary biofilm device-based assay; format: functional; conditions: ATCC 35984, 24 h
Enterococcus faecium [8] = experiment: Antibiofilm activity against vancomycin-resistant Enterococcus faecium ATCC 700221 after 24 hrs by calgary biofilm device-based assay; format: functional
Enterococcus faecium [9] = experiment: Bactericidal activity against vancomycin-resistant Enterococcus faecium ATCC 700221 after 24 hrs by calgary biofilm device-based assay; format: functional; conditions: ATCC 700221, 24 h
[10] = test system: Staphylococcus epidermidis; experiment: Antibiofilm activity against methicillin-resistant Staphylococcus epidermidis ATCC 35984 after 24 hrs by calgary biofilm device-based assay; format: functional
Staphylococcus aureus [11] = experiment: Antibiofilm activity against methicillin-resistant Staphylococcus aureus BAA 1707 after 24 hrs by calgary biofilm device-based assay; format: functional
Staphylococcus aureus [12] = experiment: Bactericidal activity against methicillin-resistant Staphylococcus aureus BAA 1707 after 24 hrs by calgary biofilm device-based assay; format: functional; conditions: BAA 1707, 24 h

| SMILES | MIC (Staphylococcus aureus [1]) [µM] | hemolysis at 1 h, 200 µM [2] [%] | MIC (Enterococcus faecium [3]) [µM] | MIC [4] [µM] | MBC (Staphylococcus aureus [5]) [µM] | MBEC (Staphylococcus aureus [6]) [µM] | MBC [7] [µM] | MBEC (Enterococcus faecium [8]) [µM] | MBC (Enterococcus faecium [9]) [µM] | MBEC [10] [µM] | MBEC (Staphylococcus aureus [11]) [µM] | MBC (Staphylococcus aureus [12]) [µM] |
| --- | --- | --- | --- | --- | --- | --- | --- | --- | --- | --- | --- | --- |
| Oc1c(Br)cc(Br)c2ccc(-c3ccccc3)nc12 | 25 (≈ 9.48 µg/mL) | 1.9 | > 100 |  |  |  |  |  |  |  |  |  |
| Oc1c(Br)cc(Br)c2cc(Cc3ccccc3)cnc12 | 50 (≈ 19.7 µg/mL) | 4.6 | 18.8 (≈ 7.39 µg/mL) | 3.13 (≈ 1.23 µg/mL) |  |  |  |  |  |  |  |  |
| Cc1nc2c(O)c(Br)cc(Br)c2cc1C(=O)NCc1ccccc1 | 6.25 (≈ 2.81 µg/mL) | 13 | 25 (≈ 11.3 µg/mL) | 6.25 (≈ 2.81 µg/mL) | > 2000 | >1000 |  |  |  |  |  |  |
| CCOC(=O)c1cc2c(Br)cc(Br)c(O)c2nc1C | 0.39 (≈ 0.152 µg/mL) | 2.2 | 0.78 (≈ 0.303 µg/mL) | 0.1 (≈ 0.0389 µg/mL) | 31.3 (≈ 12.2 µg/mL) | 31.3 | 93.8 (≈ 36.5 µg/mL) | 2 | 3 (≈ 1.17 µg/mL) | 23.5 |  |  |
| CN[C@H](CC(C)C)C(=O)N[C@H]1C(=O)N[C@@H](CC(N)=O)C(=O)N[C@H]2C(=O)N[C@H]3C(=O)N[C@H](C(=O)N[C@H](C(=O)O)c4cc(O)cc(O)c4-c4cc3ccc4O)[C@H](O)c3ccc(c(Cl)c3)Oc3cc2cc(c3O[C@@H]2O[C@H](CO)[C@@H](O)[C@H](O)[C@H]2O[C@H]2C[C@](C)(N)[C@H](O)[C@H](C)O2)Oc2ccc(cc2Cl)[C@H]1O [VANCOMYCIN] |  | ≤ 1 | > 100 |  | 3 (≈ 4.35 µg/mL) | >2000 |  | 200 | > 200 | >2000 | >2000 | 3.9 (≈ 5.65 µg/mL) |
| CCc1nc2c(O)c(Br)cc(Br)c2cc1C | 6.25 (≈ 2.16 µg/mL) | ≤ 1 | 0.78 (≈ 0.269 µg/mL) | 0.15 (≈ 0.0518 µg/mL) | > 1000 | >1000 |  |  |  |  |  |  |
| CC(=O)NC[C@H]1CN(c2ccc(N3CCOCC3)c(F)c2)C(=O)O1 [LINEZOLID] | 3.13 (≈ 1.06 µg/mL) | ≤ 1 | 3.13 (≈ 1.06 µg/mL) | 3.13 (≈ 1.06 µg/mL) |  | >2000 |  |  |  |  |  |  |
| CCCCCCCCCCCC[N+](C)(C)CC[N+](C)(C)CC[N+](C)(C)CCCCCCCCCCCC | 3.13 | > 99 | 2.35 | 2.35 | 31.3 | 125 | 31.3 | 3 | 3 | 31.3 |  |  |
| Oc1c(Br)cc(Br)c2ccc(-c3ccccn3)nc12 | 37.5 (≈ 14.3 µg/mL) | ≤ 1 | 25 (≈ 9.5 µg/mL) |  |  |  |  |  |  |  |  |  |
| COC(=O)c1cc2c(Br)cc(Br)c(O)c2nc1C | 1.56 (≈ 0.585 µg/mL) | 1.5 | 2.35 (≈ 0.881 µg/mL) | 0.3 (≈ 0.113 µg/mL) |  |  |  |  |  |  |  |  |
| Cc1cnc2c(O)c(Br)cc(Br)c2c1 | 3.13 (≈ 0.992 µg/mL) | ≤ 1 |  | 1.17 (≈ 0.371 µg/mL) | 15.6 (≈ 4.94 µg/mL) | 46.9 | 23.5 (≈ 7.45 µg/mL) | 5.9 | 7.8 (≈ 2.47 µg/mL) | 31.3 |  |  |
| CCOC(=O)c1c(C)nc2c(O)c(Br)cc(Br)c2c1C | 6.25 (≈ 2.52 µg/mL) | ≤ 1 | 4.69 (≈ 1.89 µg/mL) | 1.17 (≈ 0.472 µg/mL) |  |  |  |  |  |  |  |  |
| Cc1nc2c(O)c(Br)cc(Br)c2cc1C(=O)N1CCOCC1 | 100 (≈ 43 µg/mL) | ≤ 1 | > 100 | 50 (≈ 21.5 µg/mL) |  |  |  |  |  |  |  |  |
| Cc1nc2c(O)c(Br)cc(Br)c2cc1C(=O)O | 50 (≈ 18 µg/mL) | 2.5 | > 100 | 25 (≈ 9.02 µg/mL) |  |  |  |  |  |  |  |  |
| CCCCCCCCCC(=O)N[C@@H](Cc1c[nH]c2ccccc12)C(=O)N[C@@H](CC(N)=O)C(=O)N[C@@H](CC(=O)O)C(=O)N[C@@H]1C(=O)NCC(=O)N[C@@H](CCCN)C(=O)N[C@@H](CC(=O)O)C(=O)N[C@H](C)C(=O)N[C@@H](CC(=O)O)C(=O)NCC(=O)N[C@H](CO)C(=O)N[C@@H]([C@H](C)CC(=O)O)C(=O)N[C@@H](CC(=O)c2ccccc2N)C(=O)O[C@@H]1C [DAPTOMYCIN] |  |  |  | 12.5 (≈ 20.3 µg/mL) | 62.5 (≈ 101 µg/mL) | >2000 |  |  |  |  |  |  |
| Cc1ccc2c(Br)cc(Br)c(O)c2n1 [BROQUINALDOL] |  | ≤ 1 | 2.35 (≈ 0.745 µg/mL) | 0.2 (≈ 0.0634 µg/mL) | 23.5 (≈ 7.45 µg/mL) | 46.9 | 7.8 (≈ 2.47 µg/mL) | 2 | 3 (≈ 0.951 µg/mL) | 3 | 31.3 | 31.3 (≈ 9.92 µg/mL) |
| Cc1nc2c(O)c(Br)cc(Br)c2cc1C(=O)O/C(=N\C1CCCCC1)NC1CCCCC1 | 12.5 (≈ 7.09 µg/mL) | ≤ 1 | 25 (≈ 14.2 µg/mL) | 1.56 (≈ 0.885 µg/mL) |  |  |  |  |  |  |  |  |
| Cc1nc2c(O)c(Br)cc(Br)c2cc1C(=O)c1ccccc1 | 0.59 (≈ 0.248 µg/mL) | 2.5 | 0.78 (≈ 0.328 µg/mL) | 3.13 (≈ 1.32 µg/mL) | 15.6 (≈ 6.57 µg/mL) | 23.5 | 5.9 (≈ 2.48 µg/mL) | 23.5 | 46.9 (≈ 19.7 µg/mL) | 1 | 3.9 | 7.8 (≈ 3.28 µg/mL) |
| CCCNC(=O)c1cc2c(Br)cc(Br)c(O)c2nc1C | 37.5 (≈ 15.1 µg/mL) | 7 | 50 (≈ 20.1 µg/mL) | 12.5 (≈ 5.03 µg/mL) |  |  |  |  |  |  |  |  |
| CC(=O)c1cc2c(Br)cc(Br)c(O)c2nc1C | 1.56 (≈ 0.56 µg/mL) | 2.3 | 25 (≈ 8.98 µg/mL) | 6.25 (≈ 2.24 µg/mL) | 250 (≈ 89.8 µg/mL) | >1000 |  |  |  |  |  |  |
| CCc1cnc2c(O)c(Br)cc(Br)c2c1 | 6.25 (≈ 2.07 µg/mL) | 2.4 | 12.5 (≈ 4.14 µg/mL) | 0.59 (≈ 0.195 µg/mL) | 46.9 (≈ 15.5 µg/mL) | 188 | 62.5 (≈ 20.7 µg/mL) | 23.5 | 31.3 (≈ 10.4 µg/mL) | 46.9 |  |  |
| Cc1nc2c(O)c(Br)cc(Br)c2cc1C(=O)OCc1ccccc1 | 6.25 (≈ 2.82 µg/mL) | 7.9 | 0.3 (≈ 0.135 µg/mL) | 0.1 (≈ 0.0451 µg/mL) | 375 (≈ 169 µg/mL) | >1000 | 46.9 (≈ 21.2 µg/mL) | 1.5 | 3.9 (≈ 1.76 µg/mL) | 15.6 |  |  |
